Data taken from patent publication US7098336B2, “FXR NR1H4 nuclear receptor binding compounds” (Phenex Pharmaceuticals AG, priority 2001, dated 2006).
Where two headings read alike, the source gives them in different places.

Columns and labels:
full length human FXR = molecular target: T1, full length human FXR (Homo sapiens, UniProt Q96RI1); assay: Cellular gene reporter assay in stable HEK293-FXR reporter cell line (luciferase); format: cell-based; details: HEK293-FXR reporter cells, 16 hours incubation, FIG. 3
T1 construct: expressed in transfected cells; host or cells: HEK293, stably transfected with pTRexDest30-hFXR, pTRexDest30-hRXR and pGL2promoter-FXRRE
T1 sequence (Q96RI1 1-472 isoform Q96RI1-2): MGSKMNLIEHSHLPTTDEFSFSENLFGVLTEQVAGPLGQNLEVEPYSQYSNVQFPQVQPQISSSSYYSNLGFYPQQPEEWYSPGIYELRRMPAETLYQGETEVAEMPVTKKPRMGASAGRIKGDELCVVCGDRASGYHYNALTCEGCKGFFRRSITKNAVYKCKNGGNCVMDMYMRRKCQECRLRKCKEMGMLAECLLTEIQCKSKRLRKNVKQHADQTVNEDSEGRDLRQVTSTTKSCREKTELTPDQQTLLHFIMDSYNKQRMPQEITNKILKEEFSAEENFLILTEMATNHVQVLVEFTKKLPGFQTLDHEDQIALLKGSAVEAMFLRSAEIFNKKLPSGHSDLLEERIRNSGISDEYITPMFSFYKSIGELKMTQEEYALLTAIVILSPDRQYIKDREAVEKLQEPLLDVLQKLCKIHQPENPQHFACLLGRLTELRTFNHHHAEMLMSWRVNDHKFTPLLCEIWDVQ
T1 sequence (P19793 1-462 partner): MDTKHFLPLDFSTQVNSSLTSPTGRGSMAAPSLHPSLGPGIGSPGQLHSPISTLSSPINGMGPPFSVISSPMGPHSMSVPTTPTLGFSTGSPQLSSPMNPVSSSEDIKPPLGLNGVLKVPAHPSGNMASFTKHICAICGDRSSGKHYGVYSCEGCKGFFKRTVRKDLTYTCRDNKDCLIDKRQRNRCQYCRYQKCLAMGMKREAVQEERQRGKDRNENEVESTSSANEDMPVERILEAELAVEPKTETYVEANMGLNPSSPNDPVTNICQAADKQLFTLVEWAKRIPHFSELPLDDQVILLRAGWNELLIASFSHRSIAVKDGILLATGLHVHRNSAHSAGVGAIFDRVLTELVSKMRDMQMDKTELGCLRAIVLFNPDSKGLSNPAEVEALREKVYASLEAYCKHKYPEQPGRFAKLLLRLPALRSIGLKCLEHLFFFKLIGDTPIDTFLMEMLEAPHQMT
Excerpt: This example illustrates that a compound according to the invention can mediate transactivation of FXR mediated transcription in a HEK293 reporter cell line. Experiments shown were done with MOLSTRUCTURE LN 6691 (see structural formula below).
Stable HEK293-FXR reporter cell lines were generated by stably transfecting with the pTRexDest30 (Invitrogen) derivatives pTRexDest30-hFXR, pTRexDest30-hRXR and the pGL2promoter (Promega) derivative pGL2promoter-FXRRE. The full length human FXR (accession U68233) and the full length human RXRα (accession P19793) were cloned into the pTRexDest30 applying the manufacturer protocols for the Gateway™ system (Invitrogen).
The FXR response elements were (upper case and underlined) 5′-cccaGGGTGAaTAACCTcggggctctgtccctccaatcccaGGGTGAaTAACCTcggg 3′ (SEQ ID NO. 5) was created from the human IBAB-P promoter (Grober et al 1999, JBC 274, pp. 29749–29754) and integrated into the reporter plasmid pGL2promoter (Promega) according to standard methods known to those skilled in the art. […] Luciferase reporter activity were determined in triplicates from extracts of cells after incubating cells in culture medium (DMEM [Gibco-BRL]+10% FCS [PAA laboratories]) for 16 hours (5% CO2, 37° C.) containing 0.5% DMSO (control) or 0.5% DMSO with increasing concentrations of LN6691 (FIG. 3).

human FXR alpha (NR1H4) [1] = molecular target: T2, human FXR alpha (NR1H4) (Homo sapiens, UniProt Q96RI1); assay: In vitro LANCE TR-FRET screening for FXR binding to coactivator TIF2; format: biochemical; parameters: EC50 AVG; other: relative to CDCA control agonist; fused on or other part: GST at the N-terminus (pDest15); details: for Emax: read-out: EFFIC AVG (average efficacy, % activity relative to CDCA control agonist)
T2 sequence (Q96RI1 1-472 isoform Q96RI1-2): T1 sequence (Q96RI1 1-472 isoform Q96RI1-2)
Excerpt: For screening purposes a fragment of the open reading frame of human FXR alpha (NR1H4-(Acc. No: AF384555)) encoding aminoacids 187–472 was amplified by standard RT PCR procedures (see figures; SEQ ID NO. 1 and 2). Starting material was total RNA derived from human liver. The resulting cDNA obtained after reverse transcription was subsequently cloned using the Gateway™ recombination technology (Invitrogen, USA) into the expression plasmid pDest15 (Invitrogen, USA). This construct was used to express a recombinant GST-FXR fusion protein in E. coli (BL21 strain). A pDEST 17 derivative clone harboring an additional sequence encoding amino acids 548–878 of human TIF2 (Acc. No: XM—011633 RefSeq) was constructed using Gateway™ recombination technology (Invitrogen, USA) in order to obtain a construct which was used to express recombinant His-tagged TIF2 fragment could be expressed in E. coli. For E. coli expression of both constructs, plasmid DNA was transformed into chemically competent E. coli BL21 (Invitrogen, USA) and cells were grown to an OD600 of 0.4–0.7 before expression was induced by addition of 0.5 mM IPTG according instructions of the manufacturer (Invitrogen). After induction for 8 hours at 30° C. cells were harvested by centrifugation for 10 minutes at 5000×g. Fusion proteins were affinity purified using Glutathion sepharose (Pharmacia) or Ni-NTA Agarose (QIAGEN) according to the instructions of the respective manufacturer. Recombinant proteins were dialyzed against 20 mM Tris/HCL pH 7.9; 60 mM KCl; 5 mM MgCl2; 1 mM DTT, 0.2 mM PMSF; 10% glycerol. The TIF2 fragment was subsequently biotinylated by addition of 40–120 μl of a Biotinamidocaproate N-Hydroxysuccinimide-ester (Sigma) solution (20 mg/ml in DMSO). Overhead rotating samples were incubated for 2 hours at room temperature. Unincorporated label was then separated using G25 Gel filtration chromatography (Pharmacia Biotech, Sweden). Protein containing fractions from the column were pooled and tested for activity in the assay as described below.
(§1) For screening of compound libraries as provided for by the methods shown below in the examples for substances which influence the FXR/Tif 2 interaction, the Perkin Elmer LANCE technology was applied. This method relies on the binding dependent energy transfer from a donor to an acceptor fluorophore attached to the binding partners of interest. For ease of handling and reduction of background from compound fluorescence LANCE technology makes use of generic fluorophore labels and time resoved detection (for detailed description see Hemmilä I, Blomberg K and Hurskainen P, Time-resolved resonance energy transfer (TR-FRET) principle in LANCE, Abstract of Papers Presented at the 3 rd Annual Conference of the Society for Biomolecular Screening, September, California (1997).
For screening, 20–200 ng of biotinylated Tif 2 fragment and 10–200 ng of GST-FXR fragment were combined with 0.5–2 nM LANCE Eu-(W1024) labelled anti-GST antibody (Perkin Elmer) and 0.5–2 μg of Highly fluorescent APC-labelled streptavidin (Perkin Elmer) in the presence of 50 μM of individual compounds to be screened in a total volume of 25 μl of 20 mM Tris/HCl pH 7.9; 60 mM KCl; 5 mM MgCl2; 160 ng/μl BSA. DMSO content of the samples was kept below 4%. Samples were incubated for a minimum of 60 minutes in the dark at room temperature in FIA-Plates black 384 well med. binding (Greiner).
(§2) The LANCE signal was detected by a Perkin Elmer VICTOR2V™ Multilabel Counter applying the detection parameters listed in Table 1 below. The results were visualized by plotting the ratio between the emitted light at 665 nm and at 615 nm. For every batch of recombinant proteins amount of proteins and labeling reagents giving the most sensitive detection of hits was determined individually by analysis of dose response curves for chenodeoxycholic acid.

human FXR alpha (NR1H4) [2] = molecular target: T2, human FXR alpha (NR1H4); assay: as above; format: biochemical
Excerpt: For screening purposes a fragment of the open reading frame of human FXR alpha (NR1H4-(Acc. No: AF384555)) encoding aminoacids 187–472 was amplified by standard RT PCR procedures (see figures; SEQ ID NO. 1 and 2). Starting material was total RNA derived from human liver. The resulting cDNA obtained after reverse transcription was subsequently cloned using the Gateway™ recombination technology (Invitrogen, USA) into the expression plasmid pDest15 (Invitrogen, USA). This construct was used to express a recombinant GST-FXR fusion protein in E. coli (BL21 strain). A pDEST 17 derivative clone harboring an additional sequence encoding amino acids 548–878 of human TIF2 (Acc. No: XM—011633 RefSeq) was constructed using Gateway™ recombination technology (Invitrogen, USA) in order to obtain a construct which was used to express recombinant His-tagged TIF2 fragment could be expressed in E. coli. […]
as §1, with “This method relies on the binding dependent energy transfer from a donor to an acceptor fluorophore attached to the binding partners of interest.” left out, “(1997). […]” for “(1997).”
as §2, with “The results were visualized by plotting the ratio between the emitted light at 665 nm and at 615 nm.” left out

[3] = established according to Example 1 (FRET), unit inferred, b76 prints 0.16 μM for the same value, read-out: EC50 AVG

Emax (human FXR alpha (NR1H4) [1]) | active as agonists of the NR1H4 human nuclear receptor (human FXR alpha (NR1H4) [2]) | EC50 (human FXR alpha (NR1H4) [1]; [3]) | Structure (SMILES) | further results
125% | – | – | COc1ccccc1-c1cc(-c2ccccc2O)nc(NCC2CCC(C(=O)O)CC2)n1 (stereo not shown) [LN0000006691] | relative efficacy compared to GW4064 as control compound (full length human FXR): about 110%; EC50 (human FXR alpha (NR1H4) [1]; read-out: EC50 at FXR (half-maximal effective concentration)): 160 nM
91% | – | 530 nM | O=C(O)C1CCC(CNc2nc(-c3ccccc3O)cc(-c3ccccc3F)n2)CC1 (stereo not shown) [LN0000007265] | –
134% | – | 1090 nM | COc1ccccc1-c1cc(-c2cc(C)ccc2O)nc(NCC2CCC(C(=O)O)CC2)n1 (stereo not shown) [LN0000002683] | –
111% | – | 1660 nM | O=C(O)C1CCC(CNc2nc(-c3cccs3)cc(-c3ccccc3O)n2)CC1 (stereo not shown) [LN0000006692] | –

The next lines start with the compound.

Structure (SMILES) | Emax (human FXR alpha (NR1H4) [1]) | active as agonists of the NR1H4 human nuclear receptor (human FXR alpha (NR1H4) [2]) | EC50 (human FXR alpha (NR1H4) [1]; [3]) | further results
O=C(O)[C@H]1CC[C@H](CNc2nc(-c3cccs3)cc(-c3ccccc3O)n2)CC1 [formula (7)] | – | active as agonists | – | –
O=C(O)C1CCC(CNc2nc(-c3ccccc3O)cc(-c3ccccc3F)n2)CC1 (stereo not shown) [formula (5)] | – | active as agonists | – | –
COc1ccccc1-c1cc(-c2cc(C)ccc2O)nc(NC[C@H]2CC[C@H](C(=O)O)CC2)n1 [formula (6)] | – | active as agonists | – | –
COc1ccccc1-c1cc(-c2ccccc2O)nc(NC[C@H]2CC[C@H](C(=O)O)CC2)n1 [LN0000006691] | – | – | – | EC50 (full length human FXR): 1300 nM
